Test: Stock solution stability at approximately 4° C. (old vs new stock peak areas)
Assay type: physicochemical
Settings: for Stock solution stability, RE % (to New) of old stock peak area: approximately 4° C.
Description: The following LC-MS/MS conditions were applied for the analysis of underivatized sodium 2,2-dimethylbutyrate and DMV for stock solution stability analysis (2 to 3.5 month), and system suitability associated with these analyses: The following samples were also analyzed either in conjunction with one of the precision and accuracy runs or in one of the additional validation runs. Samples from six lots of control human plasma for specificity. Samples from six lots of control human plasma fortified with internal standard for specificity. Two concentration levels of unextracted QC-samples in triplicate (solvent standards) were analyzed for the evaluation of the recovery of sodium 2,2-dimethylbutyrate and DMV in human plasma. Two levels of QC samples (Low QC and High QC in triplicate) were subjected to three freeze/thaw cycles at approximately −70° C. prior to extraction to evaluate freeze/thaw stability. Two levels of QC samples (Low QC and High QC in triplicate) were placed on the bench top for approximately 17 hours prior to extraction for the evaluation of the bench top stability. Triplicate low QC samples and triplicate high QC samples were stored for one month and three months in a freezer at approximately −70° C., and then extracted and analyzed to evaluate long term stability in human plasma. Two levels of extracted QC samples (Low QC and High QC) were re-analyzed after approximately 71 hours in the autosampler at room temperature to evaluate the extract autosampler stability. Two levels of extracted QC samples (Low QC and High QC) were re-analyzed after approximately 8 hours in the freezer at approximately −20° C. to evaluate the extract freeze stability. Three aliquots of a dilution QC sample diluted 10-fold. Triplicate dilutions of the old stock solution (stored at approximately 4° C.) and new stock solutions prepared at intervals of two weeks and one month. Statistical calculations in the report tables were calculated from unrounded concentration values taken directly from the raw data. The concentration values were rounded for display purposes. Fresh stock solutions of sodium 2,2-dimethylbutyrate were prepared at intervals of two weeks and 1, 2, 3 and 3.5 months after the initial standard preparation. Similarly, the stability intervals for DMV were two weeks and 1, 2 and 3 months. The initial (or old) stock solutions and the fresh stock solutions were diluted into the calibration standard range and analyzed. The peak areas for the fresh (new) and old standard solutions were compared. Beginning with the 2-month stability analysis, sodium 2,2-dimethylbutyrate and DMV stock solutions were analyzed underivatized. This was done since the peak areas of both sodium 2,2-dimethylbutyrate and DMV varied among replicate derivatized preparations. Analyzing the standard solutions underivatized was a simpler procedure which gave more accurate and precise results

Structure (SMILES): CCCC(C)(C)C(=O)O [DMV, 2,2-Dimethylvaleric acid, reference compound]
- Stock solution stability, RE % (to New) of old stock peak area (1 Month Interval): 23.9%
- Stock solution stability, RE % (to New) of old stock peak area (2 Month Interval, underivatized): 14.3%
- Stock solution stability, RE % (to New) of old stock peak area (2 Week Interval): 16.7%
- Stock solution stability, RE % (to New) of old stock peak area (3 Month Interval, underivatized): 17.8%
- Stock solution stability, RE % (to New) of old stock peak area (~2 Month Interval, repeated with the 1 month stock solution as old, underivatized): −7.2%
- Time stock solutions are stable (stock solution in acetonitrile/water stored in a refrigerator at approximately 4° C.): at least 2 months
